Measured values published in patent US12404285B2, “KRAS G12D proteolysis targeting chimeras” (PAQ Therapeutics Inc., priority 2022, dated 2025).

What was measured:
[1] = target: T1, KRAS in AGS cells (KRAS G12D mutant cell line) or LS180 cells (KRAS G12D mutant cell line) (Homo sapiens, UniProt P01116, G12D); assay: KRAS Western Blot (WB) assay; format: cell-based; details: KRAS degradation, 24 hours incubation, normalized to β-actin
T1 construct: CRL-187 (LS180) (so in the source); host or cells: AGS or LS180 cells
Procedure: Day 1. Seeded AGS cells (KRAS G12D mutant cell line, ATCC, CRL-1739) or LS180 cells (KRAS G12D mutant cell line, ATCC, CRL-187) into 6-well plates (cell density: 3×10^5 cells/well/2 ml medium) in Ham's F-12 medium (Invitrogen, 11765-054) or Eagle's Minimum Essential Medium (ATCC, 30-2003) and incubated overnight at 37° C. and 5% CO2.
Day 2. Aspirated 1 ml medium from each well and added 1 ml medium containing DMSO or test compound into the well to achieve the desired final concentration. Mixed well by gentle shaking and incubated for 24 hours.
Day 3. Aspirated media from plates; washed cells with 2 ml 4° C. PBS (Solarbio, P1020-500) and aspirated the PBS. Then added 100 μl 4° C. […] lysis buffer (Boston BioProducts BP-115D) with protease and phosphatase inhibitors at vendor recommended concentrations (Roche 05892791001 and 04906837001) into each well to lyse the cells, and incubated for 20 minutes at 4° C. Cell lysate was collected into 1.5 ml Eppendorf tube, and the lysate was sonicated at 4° C. for 2 minutes (5 second pulse at 30% power with 10 second intermissions). The lysate was centrifuged at 12,000 rpm for 15 minutes at 4° C. The supernatant was transferred to a fresh Eppendorf tube, and protein concentration was quantified using a BCA kit (Solarbio, PC0020-500). Mixed the cell lysate and 5×NuPAGE SDS Loading Buffer (Beyotime, P0015L), and heated at 95° C. for 10 minutes in a heat block. Prepared samples were stored at −80° C. until SDS-PAGE procedure.
Day 4. Loaded 15 μg protein from each sample onto NuPAGE® Novex 4-12% Bis-Tris Midi Gel, 26 W (Invitrogen, WG1403BOX) and ran the gel at 120V for 1.5 hours in 1×NuPAGE® MOPS SDS Running Buffer (Novex, NP0001). Electrotransferred to nitrocellulose membrane using dry transfer method (iBlot 2 Transfer Stacks, nitrocellulose, IB23001) with a program consisting of 20V for 1 minute, 23V for 4 minutes and 25V for 2 minutes. Blocked the membrane with 5% BSA (Solarbio, A8020) in 1×TBST (CST, 9997S) for 1 hour at room temperature. Incubated with KRAS antibody (LSBio, LS-C175665, clone 2C1) at 1:1000 dilution and β-actin antibody at 1:1000 dilution (CST, 4970S) in TBST containing 1% BSA (Solarbio, A8020) at 4° C. overnight.
Day 5. Washed nitrocellulose membrane three times with 1×TBST for 10 minutes each at room temperature. Incubated with fluorescently labeled secondary antibodies at 1:5000 dilution in TBST containing 1% BSA (anti-rabbit IgG, Licor, 926-32211; anti-mouse IgG, LI-COR, 926-68070) for 1 hour at room temperature. Washed membrane three times with TBST, 10 minutes each. Scanned the membrane on LiCOR scanner for fluorescent signal(s) and quantified KRAS bands and β-actin bands for normalization.
The data are reported in Table 2, wherein “A” indicates a DC50 of less than 1 μM; “B” indicates a DC50 of greater than or equal to 1 μM and less than 10 μM; and “C” indicates a DC50 of greater than or equal to 10 μM.

[2] = target: T2, KRAS (G12D)-HiBit in AsPc-1-KRAS (G12D)-HiBit-KI cell (Homo sapiens, UniProt P01116, G12D); assay: G12D HiBit assay; format: cell-based; details: 24 hours compound treatment, absolute DC50, read-out: Average PHA DC50
T2 construct: host or cells: AsPc-1-KRAS (G12D)-HiBit-KI cells (knock-in line)
Procedure, shortened: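 Degradation of endogenous HiBiT-tagged KRAS G12D in AsPc-1 knock-in cells read after 24 h compound exposure (0.015-300 nM, 3-fold steps) by Nano-Glo HiBiT lytic luminescence. Signal normalised to DMSO-only cells; absolute DC50 derived by curve fitting.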

T2 sequence (P01116 1-188 isoform P01116-2 G12D): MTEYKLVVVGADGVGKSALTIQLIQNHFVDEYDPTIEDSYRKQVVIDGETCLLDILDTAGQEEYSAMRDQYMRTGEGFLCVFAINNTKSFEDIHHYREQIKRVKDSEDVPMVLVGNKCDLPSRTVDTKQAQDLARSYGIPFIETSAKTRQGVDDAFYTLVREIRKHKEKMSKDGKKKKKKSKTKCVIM
T1 sequence (P01116 1-188 isoform P01116-2 G12D): as above

Row | SMILES | DC50 [1] | DC50 [2]
1 | C#Cc1c(F)ccc2cc(O)cc(-c3ncc4c(N5CC6CCC(C5)N6)nc(OCC56CCCN5[C@H](COC(=O)NCCCCCCCCCNc5cccc7c5C(=O)N(C5CCC(=O)NC5=O)C7=O)CC6)nc4c3F)c12 (mixture of isomers) [Compound 023, (3RS,8RS)-[8-[[4-(3,8-Diazabicyclo[3.2.1]octan-3-yl)-7-(8-ethynyl-7-fluoro-3-hydroxy-1-naphthyl)-8-fluoro-pyrido[4,3-d]pyrimidin-2-yl]oxymethyl]-1,2,3,5,6,7-hexahydropyrrolizin-3-yl]methyl N-[9-[[2-(2,6-dioxo-3-piperidyl)-1,3-dioxo-isoindolin-4-yl]amino]nonyl]carbamate] | A (DC50 less than 1 μM) | –
2 | C#Cc1c(F)ccc2cccc(-c3ncc4c(N5CC6CCC(C5)N6)nc(OC[C@@]56CCCN5[C@H](COC(=O)NCCCC(=O)N5CCN(c7ccc(N8CCC(=O)NC8=O)cc7)CC5)CC6)nc4c3F)c12 [Compound 146, [(3S,8S)-8-[[4-(3,8-diazabicyclo[3.2.1]octan-3-yl)-7-(8-ethynyl-7-fluoro-1-naphthyl)-8-fluoro-pyrido[4,3-d]pyrimidin-2-yl]oxymethyl]-1,2,3,5,6,7-hexahydropyrrolizin-3-yl]methylN-[4-[4-[4-(2,4-dioxohexahydropyrimidin-1-yl)phenyl]piperazin-1-yl]-4-oxo-butyl]carbamate] | – | ≥ 0.3 µM
3 | C#Cc1c(F)ccc2cccc(-c3ncc4c(N5CC6CCC(C5)N6)nc(OC[C@@]56CCCN5[C@H](COC(=O)NCCCCC(=O)N5CCN(c7ccc(N8CCC(=O)NC8=O)cc7)CC5)CC6)nc4c3F)c12 [Compound 147, [(3S,8S)-8-[[4-(3,8-Diazabicyclo[3.2.1]octan-3-yl)-7-(8-ethynyl-7-fluoro-1-naphthyl)-8-fluoro-pyrido[4,3-d]pyrimidin-2-yl]oxymethyl]-1,2,3,5,6,7-hexahydropyrrolizin-3-yl]methyl N-[5-[4-[4-(2,4-dioxohexahydropyrimidin-1-yl)phenyl]piperazin-1-yl]-5-oxo-pentyl]carbamate] | – | ≥ 0.3 µM
4 | C#Cc1c(F)ccc2cccc(-c3ncc4c(N5CC6CCC(C5)N6)nc(OC[C@@]56CCCN5[C@H](COC(=O)NCCCCCC(=O)N5CCN(c7ccc(N8CCC(=O)NC8=O)cc7)CC5)CC6)nc4c3F)c12 [Compound 148, ((3S,7aS)-7a-(((4-(3,8-Diazabicyclo[3.2.1]octan-3-yl)-7-(8-ethynyl-7-fluoronaphthalen-1-yl)-8-fluoropyrido[4,3-d]pyrimidin-2-yl)oxy)methyl)hexahydro-1H-pyrrolizin-3-yl)methyl(6-(4-(4-(2,4-dioxotetrahydropyrimidin-1(2H)-yl)phenyl)piperazin-1-yl)-6-oxohexyl)carbamate] | – | ≥ 0.3 µM
5 | C#Cc1c(F)ccc2cccc(-c3ncc4c(N5CC6CCC(C5)N6)nc(OC[C@@]56CCCN5[C@H](COC(=O)NCCCCCCC(=O)N5CCN(c7ccc(N8CCC(=O)NC8=O)cc7)CC5)CC6)nc4c3F)c12 [Compound 149, [(3S,8S)-8-[[4-(3,8-Diazabicyclo[3.2.1]octan-3-yl)-7-(8-ethynyl-7-fluoro-1-naphthyl)-8-fluoro-pyrido[4,3-d]pyrimidin-2-yl]oxymethyl]-1,2,3,5,6,7-hexahydropyrrolizin-3-yl]methyl N-[7-[4-[4-(2,4-dioxohexahydropyrimidin-1-yl)phenyl]piperazin-1-yl]-7-oxo-heptyl]carbamate] | – | ≥ 0.3 µM

Further lines, results first:

Row | DC50 [1] | DC50 [2] | SMILES
6 | – | < 0.1 µM | C#Cc1c(F)ccc2cccc(-c3ncc4c(N5CC6CCC(C5)N6)nc(OC[C@@]56CCCN5[C@H](COC(=O)N(C)CCC5CCN(Cc7cccc8c7n(C)c(=O)n8C7CCC(=O)NC7=O)CC5)CC6)nc4c3F)c12 (stereo partly drawn) [Compound 134, [(3S,8S)-8-[[4-(3,8-diazabicyclo[3.2.1]octan-3-yl)-7-(8-ethynyl-7-fluoro-1-naphthyl)-8-fluoro-pyrido[4,3-d]pyrimidin-2-yl]oxymethyl]-1,2,3,5,6,7-hexahydropyrrolizin-3-yl]methyl N-[2-[1-[[1-(2,6-dioxo-3-piperidyl)-3-methyl-2-oxo-benzimidazol-4-yl]methyl]-4-piperidyl]ethyl]-N-methyl-carbamate]
7 | – | < 0.1 µM | C#Cc1c(F)ccc2cccc(-c3ncc4c(N5CC6CCC(C5)N6)nc(OC[C@@]56CCCN5[C@H](COC(=O)N5CCC(OCCc7cccc8c7n(C)c(=O)n8C7CCC(=O)NC7=O)CC5)CC6)nc4c3F)c12 (stereo partly drawn) [Compound 135, [(3S,8S)-8-[[4-(3,8-Diazabicyclo[3.2.1]octan-3-yl)-7-(8-ethynyl-7-fluoro-1-naphthyl)-8-fluoro-pyrido[4,3-d]pyrimidin-2-yl]oxymethyl]-1,2,3,5,6,7-hexahydropyrrolizin-3-yl]methyl 4-[2-[1-(2,6-dioxo-3-piperidyl)-3-methyl-2-oxo-benzimidazol-4-yl]ethoxy]piperidine-1-carboxylate]
8 | – | < 0.1 µM | C#Cc1c(F)ccc2cccc(-c3ncc4c(N5CC6CCC(C5)N6)nc(OC[C@@]56CCCN5[C@H](COC(=O)N5CCC(OCCCc7ccc8c(c7)n(C)c(=O)n8C7CCC(=O)NC7=O)CC5)CC6)nc4c3F)c12 (stereo partly drawn) [Compound 136, [(3S,8S)-8-[[4-(3,8-Diazabicyclo[3.2.1]octan-3-yl)-7-(8-ethynyl-7-fluoro-1-naphthyl)-8-fluoro-pyrido[4,3-d]pyrimidin-2-yl]oxymethyl]-1,2,3,5,6,7-hexahydropyrrolizin-3-yl]methyl 4-[3-[1-(2,6-dioxo-3-piperidyl)-3-methyl-2-oxo-benzimidazol-5-yl]propoxy]piperidine-1-carboxylate]
9 | – | ≥ 0.3 µM | C#Cc1c(F)ccc2cccc(-c3ncc4c(N5CC6CCC(C5)N6)nc(OC[C@@]56CCCN5[C@H](COC(=O)N5CCC(OCCCc7cccc8c7n(C)c(=O)n8C7CCC(=O)N(C)C7=O)CC5)CC6)nc4c3F)c12 (stereo partly drawn) [Compound 144, [(3S,8S)-8-[[4-(3,8-Diazabicyclo[3.2.1]octan-3-yl)-7-(8-ethynyl-7-fluoro-1-naphthyl)-8-fluoro-pyrido[4,3-d]pyrimidin-2-yl]oxymethyl]-1,2,3,5,6,7-hexahydropyrrolizin-3-yl]methyl 4-[3-[3-methyl-1-(1-methyl-2,6-dioxo-3-piperidyl)-2-oxo-benzimidazol-4-yl]propoxy]piperidine-1-carboxylate]
10 | – | < 0.1 µM | C#Cc1c(F)ccc2cccc(-c3ncc4c(N5CC6CCC(C5)N6)nc(OC[C@@]56CCCN5[C@H](COC(=O)N5CCC(CNC7CCN(Cc8cccc9c8n(C)c(=O)n9C8CCC(=O)NC8=O)CC7)CC5)CC6)nc4c3F)c12 (stereo partly drawn) [Compound 145, [(3S,8S)-8-[[4-(3,8-Diazabicyclo[3.2.1]octan-3-yl)-7-(8-ethynyl-7-fluoro-1-naphthyl)-8-fluoro-pyrido[4,3-d]pyrimidin-2-yl]oxymethyl]-1,2,3,5,6,7-hexahydropyrrolizin-3-yl]methyl 4-[[[1-[[1-(2,6-dioxo-3-piperidyl)-3-methyl-2-oxo-benzimidazol-4-yl]methyl]-4-piperidyl]amino]methyl]piperidine-1-carboxylate]
